According to patent US20160194358A1, “LINEAR PEPTIDE ANTIBIOTCS” (priority 2013, published 2016):
Converted amounts (≈) assume the structure as drawn. Where a SMILES comes first, the peptide text is derived from it. [ ]: non-standard residue; d: D form. The star is where a group is joined. Benzoyl(4-(4-Cl-Ph)) = O=C(c1ccc(-c2ccc(Cl)cc2)cc1)*; X15 = Cc1nnc(C(=O)[C@H](C)N*)o1; X2 = C[C@H](N*)C(=O)c1ncco1; Dap = NC[C@H](N)C(=O)O

Key:
[1] = tested on: Escherichia coli strain MC4100 IMP-4213, which harbors an LptD mutation; conditions: E. coli MC4100 IMP-4213; 35° C., 22 hours
Outline: (§1)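 CLSI broth microdilution in cation-adjusted Mueller Hinton Broth with 0.002% Tween-80, two-fold dilutions starting at 64 μg/ml.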

[2] = tested on: methicillin resistant Staphylococcus aureus (MRSA) strain USA300 (NRS384); conditions: MRSA USA300 (NRS384); 35° C., 22 hours
Outline: as §1

[3] = molecular target: T1, E. coli SPase (Escherichia coli, UniProt P00803); experiment: Biochemical SPase activity assay, fluorogenic peptide substrate, E. coli enzyme; conditions: 20 μM substrate, 10 minutes preincubation, read-out: IC 50 (nM) E. coli
T1 construct: Full length His-tagged E. coli SPase proteins; His; made in house; host or cells: E. coli BL21(DE3)
T1 sequence (P00803 whole entry): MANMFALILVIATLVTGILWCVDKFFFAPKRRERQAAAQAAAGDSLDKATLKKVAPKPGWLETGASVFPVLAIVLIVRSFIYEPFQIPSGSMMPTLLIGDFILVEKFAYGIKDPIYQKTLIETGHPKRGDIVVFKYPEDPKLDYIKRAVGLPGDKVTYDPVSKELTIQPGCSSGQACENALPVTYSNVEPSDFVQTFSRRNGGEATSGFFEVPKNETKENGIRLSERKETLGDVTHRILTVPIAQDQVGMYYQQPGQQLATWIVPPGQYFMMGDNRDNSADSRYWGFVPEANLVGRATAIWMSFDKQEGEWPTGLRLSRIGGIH

[4] = molecular target: S. aureus SPase (Staphylococcus aureus, UniProt P0A070); experiment: biochemical; conditions: IC 50 (nM) S. aureus, 20 μM substrate, 10 minutes preincubation
S. aureus SPase, sequence (P0A070 whole entry): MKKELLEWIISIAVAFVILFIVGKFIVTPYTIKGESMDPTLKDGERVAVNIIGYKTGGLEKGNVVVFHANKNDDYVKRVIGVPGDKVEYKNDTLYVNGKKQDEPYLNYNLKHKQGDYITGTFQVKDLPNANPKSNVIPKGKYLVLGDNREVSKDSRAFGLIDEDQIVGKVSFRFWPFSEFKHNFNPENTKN

| Compound | MIC (μg/mL) E. coli [1] | MIC (μg/mL) S. aureus [2] | IC50 [3] | IC50 [4] |
| --- | --- | --- | --- | --- |
| C[C@H](NC(=O)[C@@H](NC(=O)[C@H](CN)NC(=O)c1ccc(-c2ccc(Cl)cc2)cc1)[C@@H](C)O)C(=O)N[C@@H](CCCCN)C(=O)N[C@@H](C)C(=O)c1ncco1 [Compound 212] ({Benzoyl(4-(4-Cl-Ph))}-[Dap]TAK-X2) | 64 µg/mL (≈ 86.3 µM) | 45 µg/mL (≈ 60.7 µM) | 34 nM | 2600 nM |
| Cc1nnc(C(=O)[C@H](C)NC(=O)[C@H](CCCCN)NC(=O)[C@H](C)NC(=O)[C@H](CCCCN)NC(=O)[C@H](CN)NC(=O)c2ccc(-c3ccc(Cl)cc3)cc2)o1 [Compound 213] ({Benzoyl(4-(4-Cl-Ph))}-[Dap]KAK-X15) | 64 µg/mL (≈ 81.7 µM) | 32 µg/mL (≈ 40.9 µM) | 49 nM | > 10000 nM |
